Data from the NIST ThermoML archive (doi:10.1016/j.fluid.2013.12.002).
Numbers after ± are expanded uncertainties. One block for each compound: values may come before it.

Settings: Liquid, Ebulliometric method (Recirculating still)

- vapor or sublimation pressure (353.26 K): 101.33 ± 1.4 kPa
Structure (SMILES): c1ccccc1 [benzene]

Structure (SMILES): O=Cc1ccccc1 [benzaldehyde]
- vapor or sublimation pressure (377.63 K): 10 ± 0.15 kPa
- vapor or sublimation pressure (396.65 K): 20 ± 0.31 kPa
- vapor or sublimation pressure (408.67 K): 30 ± 0.45 kPa

Structure (SMILES): Cc1ccccc1 [toluene]
- vapor or sublimation pressure (383.81 K): 101.33 ± 1.4 kPa

Structure (SMILES): O=CC=Cc1ccccc1 [(E)-3-phenyl-2-propanal]
- vapor or sublimation pressure (442.84 K): 10 ± 0.15 kPa
- vapor or sublimation pressure (463.15 K): 20 ± 0.33 kPa
- vapor or sublimation pressure (475.83 K): 30 ± 0.49 kPa
